Values after ≈ are worked out from the molar mass of the structure shown.

Series [1] is described as follows: Stability of Compound X and its salts in aqueous solution. Format: physicochemical. Conditions: in solution, before addition of arginine or other base. From the text: It is important for a drug product to be stable enough to avoid significant degradation when it is shipped and stored under commercially practical conditions. The inventors have discovered that Compound X in solution is preferably used and stored at a pH between 4 and 6, preferably between 4.0 and 5.5, for maximum stability in the presence of moisture. Optimal solution stability is achieved at a pH of about 4.0 to 5.5 Accordingly, the invention provides pharmaceutical compositions comprising Compound X at a pH between 4 and 6, preferably between 4.0 and 5.5, and more preferably at a pH of about 5±0.5 or at pH of 5±0.2. Suitable compositions comprise Compound X in an aqueous solution, such as a dextrose or saline solution, which may be isotonic, and may contain other substances such as stabilizers, antioxidants, buffers or pH modifiers, nutrients, and the like. In some of these embodiments, the desired pH is achieved by combining Compound X and a pH modifier suitable to achieve the desired pH in an aqueous solution. Suitable pH modifiers include but are not limited to sodium hydroxide, sodium carbonate, sodium bicarbonate, potassium carbonate, potassium hydroxide, amines such as TRIS (tris(hydroxymethyl)aminomethane), and amino acids such as arginine, lysine, histidine, and the like. Known monobactams, including aztreonam, have been formulated with arginine. […]

The test system of another series is E. coli strain 25922. Put plainly: MIC by broth microdilution, E. coli strain 25922. The series is classed as cell-based. Conditions: Escherichia coli, salt: none, read-out: Inhibitory Concentration (MIC) Ec 25922. The procedure:
(§1) Bacterial isolates were cultivated from −70° C. frozen stocks by two consecutive overnight passages at 35° C. in ambient air on 5% blood agar (Remel, Lenexa, Kans.). Quality control and P. aeruginosa ATCC 27853) is from the American Type Culture Collection (ATCC; Rockville, Md.) and PAO1 was received from Dr. K. Poole.
Minimal Inhibitory Concentrations (MICs) were determined by the broth microdilution method in accordance with Clinical and Laboratories Institute (CLSI) guidelines. In brief, fresh overnight bacterial cultures were suspended in sterile saline, and adjusted to a 0.5 McFarland turbidity standard. Bacterial suspensions were then diluted in cation adjusted Mueller-Hinton Broth (MHB II; BBL) to yield a final inoculum of approximately 5×10^5 colony-forming units (CFU)/mL. A master plate of antibiotics was prepared at a concentration equivalent to hundred-fold the highest desired final concentration in 100% dimethyl sulfoxide (DMSO). […] The assay plates were read using a microtiter plate reader (Molecular Devices) at 600 nm as well as by visual observation with a reading mirror. The lowest concentration of the compound that prevented visible growth was recorded as the MIC. Performance of the assay was monitored by testing aztreonam against laboratory quality control strains in accordance with guidelines of the CLSI.

The test system of series [2] is E. coli NB27273-CDY0033 (KPC2). Put plainly: MIC by broth microdilution, isogenic E. coli expressing KPC2. Format: cell-based. Conditions: Escherichia coli, read-out: Inhibitory Concentration (MIC) Ec KPC2 Iso. The procedure: as §1
Strain NB27273 (BW25113 pspB::Km^r) was obtained from the Keio transposon insertion collection. The strain has the pspB gene replaced by a kanamycin resistance marker (BW25113 pspB::Km^r). This strain was cured of the transposon in pspB via FLP recombinase using published methodology. The resulting strain, BW25113 pspB, was used as a host for multicopy vectors expressing key β-lactamases. Multicopy plasmids directing constitutive expression of β-lactamases were established as follows: Synthetic, codon optimized genes encoding E. coli KPC2 and SHV12-lactamases were made by DNA2.0 (Palo Alto, Calif.). Each of the synthetic fragments were designed to contain NotI and NcoI restriction sites at their termini, allowing ligation into a NotI/NcoI digested pET28a(+) derivative for protein expression. […]

The nature of another series: Photochemical stability. The series is classed as physicochemical. Here is the method:
Compound X (500 mg) and L-arginine (332.5 mg) are combined in a vial. Saccharose (crystalline, pyrogen-free sucrose: 1000 mg) is added along with water suitable for injection (8.00 mL). The pH of the solution is adjusted, if necessary, using 1.0N HCl or 1.0N NaOH to arrive at a pH of 5.0±0.5, preferably a pH of 5.0±0.2. This provides a solution containing about 62.5 mg/mL of Compound X as an arginine salt. This solution can be filtered if necessary, and can be lyophilized to provide a white or off-white solid (lyophilizate). The lyophilized solid can be reconstituted with sterile water or a pharmaceutically acceptable aqueous carrier such as isotonic saline or dextrose to provide a solution suitable for intravenous administration. The lyophilizate should be stored in a container that excludes light to protect the lyophilizate from photodegradation. This process can be scaled up or down to provide unit dosages for storage and distribution, or bulk material that can be further processed as desired.
In one embodiment of the invention, Compound X is packaged in a container that substantially reduces exposure to light, preferably in an atmosphere at a relative humidity of 25-50% humidity and more preferably at a relative humidity of 30-40% or 30-45%.

Take `Nc1nc(/C(=N/OC2(C(=O)O)CC2)C(=O)N[C@@H]2C(=O)N(S(=O)(=O)O)[C@@H]2CN2CCOC2=O)cs1` [Compound X, 1-(((Z)-(1-(2-aminothiazol-4-yl)-2-oxo-2-(((3S,4R)-2-oxo-4-((2-oxooxazolidin-3-yl)methyl)-1-sulfoazetidin-3-yl)amino)ethylidene)amino)oxy)cyclopropanecarboxylic acid]: the “hydrolytic stability in water” value in series [1] is “subject to hydrolytic degradation in water in the absence of a base or outside the pH range of 4-6”. The MIC in the series with E. coli strain 25922 stood at 250 µg/mL; in series [2] it was 125 µg/mL (≈ 241 µM). The photochemical stability result in “Photochemical stability” is given as “degrade photochemically”.

For the origin of these results see patent publication US10919887B2, “Salts and solid forms of a monobactam antibiotic” (Novartis AG, priority 2015, dated 2021).
